Reference: patent US20170107179A1 (Tetraphase Pharmaceuticals, Inc., priority 2010, published 2017)
Converted amounts (≈) assume the structure as drawn. Where two headings read alike, the source gives them in different places.

Experiments:
E. coli DH10B EC969 TetM = assay: MIC, E. coli DH10B recombinantly expressing tetracycline-resistance gene; conditions: arabinose-induced, ampicillin in medium
[1] = tested on: Viridans group streptococci; assay: Broth microdilution MIC by tetracycline resistance phenotype (Table 10); assay type: cell-based; parameters: unit not given beside the values
[2] = tested on: E. coli DH10B EC1082 TetA; assay: MIC, E. coli DH10B recombinantly expressing tetracycline-resistance gene; conditions: arabinose-induced, ampicillin in medium
E. coli DH10B EC971 LacZ = assay: MIC, E. coli DH10B recombinantly expressing control gene; conditions: E. coli DH10B, arabinose-induced, ampicillin in medium
[3] = tested on: E. coli DH10B EC1153 Tet(X); assay: MIC, E. coli DH10B recombinantly expressing tetracycline-resistance gene; conditions: arabinose-induced, ampicillin in medium
[4] = tested on: Gram-negative and Gram-positive organisms (clinical isolates); assay: Broth microdilution MIC against clinical isolates (CLSI M7-A8), Table 9; assay type: cell-based
E. coli DH10B EC970 TetK = assay: MIC, E. coli DH10B recombinantly expressing tetracycline-resistance gene; conditions: arabinose-induced, ampicillin in medium
[5] = tested on: E. coli DH10B EC1083 TetB; assay: as above; conditions: arabinose-induced, ampicillin in medium
[6] = tested on: evaluated pathogens by tetracycline phenotype; assay: Broth microdilution MIC by tetracycline phenotype (Table 14)
Gram-positive pathogens = assay: Broth microdilution MIC, respiratory/skin pathogens (Table 12)
M. catarrhalis (n = 50) = assay: Broth microdilution MIC, respiratory pathogens (Table 13)
S. pneumoniae SP106 = assay type: cell-based; conditions: SP106, plates containing compound at 5× the MIC, 5% sheep blood
S. aureus SA101 = assay type: cell-based; conditions: SA101, plates containing compound at 5× the MIC
[7] = Klebsiella aerogenes, Enterobacter aerogenes, n=30
[8] = Klebsiella pneumoniae, Klebsiella pneumonia, n=27
[9] = Stenotrophomonas maltophilia, n=29
[10] = Streptococcus intermedius, n=30
[11] = Enterococcus faecium, E. faecium, TET NS, N=40
[12] = Enterococcus faecium, E. faecium, TET S, N=60
[13] = Streptococcus agalactiae, S. agalactiae, TET NS, N=39
[14] = Streptococcus agalactiae, S. agalactiae, TET S, N=11
[15] = Streptococcus pneumoniae, S. pneumoniae, TET NS, N=46
[16] = Streptococcus pneumoniae, S. pneumoniae, TET S, N=54
[17] = Streptococcus pyogenes, S. pyogenes, TET S, N=44
[18] = Staphylococcus aureus (MRSA PVL+), n=30

CN(C)c1cc(NC(=O)CNC(C)(C)C)c(O)c2c1C[C@H]1C[C@H]3[C@H](N(C)C)C(O)=C(C(N)=O)C(=O)[C@@]3(O)C(O)=C1C2=O [Tigecycline, tigecycline]
MIC EC969 TetM (E. coli DH10B EC969 TetM): 0.125
MIC50 ([1]; TET NS, n=32): 0.03
MIC90 ([1]; TET NS, n=32): 0.12
MIC50 ([1]; TET S, n=65): 0.03
MIC90 ([1]; TET S, n=65): 0.06
MIC EC1082 TetA [2]: 1
MIC EC971 LacZ (E. coli DH10B EC971 LacZ): 0.0625
MIC EC1153 Tet(X) [3]: 2
MIC50 ([4]; Acinetobacter lwoffii, n=29): 0.12 µg/mL (≈ 0.205 µM)
MIC90 ([4]; Acinetobacter lwoffii, n=29): 0.5 µg/mL (≈ 0.854 µM)
MIC50 ([4]; Enterobacter cloacae, n=29): 1 µg/mL (≈ 1.71 µM)
MIC90 ([4]; Enterobacter cloacae, n=29): 4 µg/mL (≈ 6.83 µM)
MIC50 ([4]; Escherichia coli, n=40): 0.5 µg/mL (≈ 0.854 µM)
MIC90 ([4]; Escherichia coli, n=40): 2 µg/mL (≈ 3.41 µM)
MIC50 ([4]; Kiebsielia oxytoca, n=30): 0.5 µg/mL (≈ 0.854 µM)
MIC90 ([4]; Kiebsielia oxytoca, n=30): 2 µg/mL (≈ 3.41 µM)
MIC50 [4, 7]: 0.5 µg/mL (≈ 0.854 µM)
MIC90 [4, 7]: 0.5 µg/mL (≈ 0.854 µM)
MIC50 [4, 8]: 2 µg/mL (≈ 3.41 µM)
MIC90 [4, 8]: 4 µg/mL (≈ 6.83 µM)
MIC50 ([4]; Morganella morganii, n=30): 2 µg/mL (≈ 3.41 µM)
MIC90 ([4]; Morganella morganii, n=30): 4 µg/mL (≈ 6.83 µM)
MIC50 ([4]; Proteus vulgaris, n=29): 2 µg/mL (≈ 3.41 µM)
MIC90 ([4]; Proteus vulgaris, n=29): 4 µg/mL (≈ 6.83 µM)
MIC50 ([4]; Salmonella species, n=30): 0.25 µg/mL (≈ 0.427 µM)
MIC90 ([4]; Salmonella species, n=30): 0.5 µg/mL (≈ 0.854 µM)
MIC50 ([4]; Serratia marcescens, n=30): 1 µg/mL (≈ 1.71 µM)
MIC90 ([4]; Serratia marcescens, n=30): 2 µg/mL (≈ 3.41 µM)
MIC50 ([4]; Staphylococcus aureus, Staphylococcus aureus (MRSA PVL+), n=30, read-out: MIC50): 0.12 µg/mL (≈ 0.205 µM)
MIC90 ([4]; Staphylococcus aureus, Staphylococcus aureus (MRSA PVL+), n=30, read-out: MIC90): 0.12 µg/mL (≈ 0.205 µM)
MIC50 ([4]; Staphylococcus aureus, Staphylococcus aureus MRSA (includes MRSA PVL+ group), n=105, read-out: MIC50): 0.13 µg/mL (≈ 0.222 µM)
MIC90 ([4]; Staphylococcus aureus, Staphylococcus aureus MRSA (includes MRSA PVL+ group), n=105, read-out: MIC90): 0.25 µg/mL (≈ 0.427 µM)
MIC50 [4, 9]: 0.5 µg/mL (≈ 0.854 µM)
MIC90 [4, 9]: 2 µg/mL (≈ 3.41 µM)
MIC50 ([4]; Streptococcus anginosus, n=20): 0.03 µg/mL (≈ 0.0512 µM)
MIC90 ([4]; Streptococcus anginosus, n=20): 0.06 µg/mL (≈ 0.102 µM)
MIC50 [4, 10]: 0.03 µg/mL (≈ 0.0512 µM)
MIC90 [4, 10]: 0.12 µg/mL (≈ 0.205 µM)
MIC50 ([4]; Streptococcus mitis, n=29): 0.03 µg/mL (≈ 0.0512 µM)
MIC90 ([4]; Streptococcus mitis, n=29): 0.12 µg/mL (≈ 0.205 µM)
MIC50 ([4]; Streptococcus sanguis, n=18): 0.03 µg/mL (≈ 0.0512 µM)
MIC90 ([4]; Streptococcus sanguis, n=18): 0.06 µg/mL (≈ 0.102 µM)
MIC EC970 TetK (E. coli DH10B EC970 TetK): 0.0625
MIC EC1083 TetB [5]: 0.0625
MIC50 [6, 11]: 0.06 µg/mL (≈ 0.102 µM)
MIC90 [6, 11]: 0.12 µg/mL (≈ 0.205 µM)
MIC50 [6, 12]: 0.06 µg/mL (≈ 0.102 µM)
MIC90 [6, 12]: 0.06 µg/mL (≈ 0.102 µM)
MIC50 ([6]; F. faecalis, TET NS, N=71): 0.12 µg/mL (≈ 0.205 µM)
MIC90 ([6]; F. faecalis, TET NS, N=71): 0.12 µg/mL (≈ 0.205 µM)
MIC50 ([6]; F. faecalis, TET S, N=30): 0.06 µg/mL (≈ 0.102 µM)
MIC90 ([6]; F. faecalis, TET S, N=30): 0.12 µg/mL (≈ 0.205 µM)
MIC50 [6, 13]: 0.12 µg/mL (≈ 0.205 µM)
MIC90 [6, 13]: 0.12 µg/mL (≈ 0.205 µM)
MIC50 [6, 14]: 0.12 µg/mL (≈ 0.205 µM)
MIC90 [6, 14]: 0.12 µg/mL (≈ 0.205 µM)
MIC50 [6, 15]: 0.06 µg/mL (≈ 0.102 µM)
MIC90 [6, 15]: 0.06 µg/mL (≈ 0.102 µM)
MIC50 [6, 16]: 0.06 µg/mL (≈ 0.102 µM)
MIC90 [6, 16]: 0.06 µg/mL (≈ 0.102 µM)
MIC50 ([6]; Streptococcus pyogenes, S. pyogenes, TET NS, N=6): 0.06 µg/mL (≈ 0.102 µM)
MIC50 [6, 17]: 0.06 µg/mL (≈ 0.102 µM)
MIC90 [6, 17]: 0.06 µg/mL (≈ 0.102 µM)

Gentamicin
MIC50 (Gram-positive pathogens; CoNS, MRCoNS (n = 26)): 0.25 µg/mL
MIC90 (Gram-positive pathogens; CoNS, MRCoNS (n = 26)): > 8 µg/mL
MIC50 (Gram-positive pathogens; CoNS, MSCoNS (n = 26)): 0.12 µg/mL
MIC90 (Gram-positive pathogens; CoNS, MSCoNS (n = 26)): 0.25 µg/mL
MIC50 (Gram-positive pathogens; E. faecalis, VAN NS (n = 48)): > 8 µg/mL
MIC90 (Gram-positive pathogens; E. faecalis, VAN NS (n = 48)): > 8 µg/mL
MIC50 (Gram-positive pathogens; E. faecalis, VAN S (n = 53)): > 8 µg/mL
MIC90 (Gram-positive pathogens; E. faecalis, VAN S (n = 53)): > 8 µg/mL
MIC50 (Gram-positive pathogens; E. faecium, VAN NS (n = 51)): 8 µg/mL
MIC90 (Gram-positive pathogens; E. faecium, VAN NS (n = 51)): > 8 µg/mL
MIC50 (Gram-positive pathogens; E. faecium, VAN S (n = 49)): 8 µg/mL
MIC90 (Gram-positive pathogens; E. faecium, VAN S (n = 49)): > 8 µg/mL
MIC50 (Gram-positive pathogens; S. aureus, MSSA (n = 50)): 0.25 µg/mL
MIC90 (Gram-positive pathogens; S. aureus, MSSA (n = 50)): 0.5 µg/mL
MIC50 (Gram-positive pathogens; S. saprophyticus (n = 36)): ≦0.06 mg/mL
MIC90 (Gram-positive pathogens; S. saprophyticus (n = 36)): ≦0.06 mg/mL
MIC50 ([4]; Acinetobacter lwoffii, n=29): ≦0.25 μg/ml
MIC90 ([4]; Acinetobacter lwoffii, n=29): 1 µg/mL
MIC50 ([4]; Enterobacter aerogenes, n=30): ≦0.25 μg/ml
MIC90 ([4]; Enterobacter aerogenes, n=30): 0.5 µg/mL
MIC50 ([4]; Enterobacter cloacae, n=29): 0.5 µg/mL
MIC90 ([4]; Enterobacter cloacae, n=29): >8 µg/mL
MIC50 ([4]; Escherichia coli, n=40): 2 µg/mL
MIC90 ([4]; Escherichia coli, n=40): >8 µg/mL
MIC50 ([4]; Kiebsielia oxytoca, n=30): 0.5 µg/mL
MIC90 ([4]; Kiebsielia oxytoca, n=30): 2 µg/mL
MIC50 ([4]; Klebsiella pneumonia, n=27): >8 µg/mL
MIC90 ([4]; Klebsiella pneumonia, n=27): >8 µg/mL
MIC50 ([4]; Morganella morganii, n=30): 1 µg/mL
MIC90 ([4]; Morganella morganii, n=30): >8 µg/mL
MIC50 ([4]; Proteus vulgaris, n=29): 1 µg/mL
MIC90 ([4]; Proteus vulgaris, n=29): >8 µg/mL
MIC50 ([4]; Salmonella species, n=30): 0.5 µg/mL
MIC90 ([4]; Salmonella species, n=30): 1 µg/mL
MIC50 ([4]; Serratia marcescens, n=30): 0.5 µg/mL
MIC90 ([4]; Serratia marcescens, n=30): 1 µg/mL
MIC50 ([4]; Shigella species, n=30): 1 µg/mL
MIC90 ([4]; Shigella species, n=30): 1 µg/mL
MIC50 [4, 18]: 0.25 µg/mL
MIC90 [4, 18]: 0.5 µg/mL
MIC50 [4, 9]: >8 µg/mL
MIC90 [4, 9]: >8 µg/mL
MIC50 (M. catarrhalis (n = 50)): 0.12 µg/mL
MIC90 (M. catarrhalis (n = 50)): 0.12 µg/mL

CO[C@H]1/C=C/O[C@@]2(C)Oc3c(C)c(O)c4c(O)c(c(/C=N/N5CCN(C)CC5)c(O)c4c3C2=O)NC(=O)/C(C)=C\C=C\[C@H](C)[C@H](O)[C@@H](C)[C@@H](O)[C@@H](C)[C@H](OC(C)=O)[C@@H]1C [rifampin, reference compound]
spontaneous resistance frequency (S. pneumoniae SP106): 2.88×10^−7
spontaneous resistance frequency (S. aureus SA101): 2.0×10^−8
